In ChEMBL document CHEMBL1201862, “PubChem BioAssay data set” (2004):
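Tested at 5 concentrations; 48 h exposure; 96-well plates; endpoints linearly interpolated, else capped at highest concentration. The concentration for 50% growth inhibition is given as GI50.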 Activity calls are given as the source filed them. Cut-off read from the data, not from the text of the source: active = GI50 up to about 1.1 µM and inactive = higher.

Experiments:
Experiment in all cases: growth of human tumour cells (NCI), 48 h
ACHN = system: ACHN
CAKI-1 = system: CAKI-1
COLO 205 = system: COLO 205
EKVX = system: EKVX
HOP-62 = system: HOP-62
KM12 = system: KM12
LOX IMVI = system: LOX IMVI
MDA-MB-231 = system: MDA-MB-231
MDA-MB-435 = system: MDA-MB-435
OVCAR-3 = system: OVCAR-3
SF-268 = system: SF-268
SF-539 = system: SF-539
SN12C = system: SN12C
SNB-75 = system: SNB-75
SR = system: SR
UACC-62 = system: UACC-62
UO-31 = system: UO-31
NCI/ADR-RES = system: NCI/ADR-RES
OVCAR-4 = system: OVCAR-4
SK-MEL-2 = system: SK-MEL-2

| SMILES | GI50 (ACHN) | GI50 (CAKI-1) | GI50 (COLO 205) | GI50 (EKVX) | GI50 (HOP-62) | GI50 (KM12) | GI50 (LOX IMVI) | GI50 (MDA-MB-231) | GI50 (MDA-MB-435) | GI50 (OVCAR-3) | GI50 (SF-268) | GI50 (SF-539) | GI50 (SN12C) | GI50 (SNB-75) | GI50 (SR) | GI50 (UACC-62) | GI50 (UO-31) | GI50 (NCI/ADR-RES) | GI50 (OVCAR-4) | GI50 (SK-MEL-2) |
| --- | --- | --- | --- | --- | --- | --- | --- | --- | --- | --- | --- | --- | --- | --- | --- | --- | --- | --- | --- | --- |
| CC(C)(C)OC(=O)/C=C/C(=O)O/C=C/[N+](=O)[O-] | > 100 µM (inactive) | > 100 µM (inactive) | > 100 µM (inactive) | > 100 µM (inactive) | > 100 µM (inactive) | > 100 µM (inactive) | > 100 µM (inactive) | > 100 µM (inactive) | > 100 µM (inactive) | > 100 µM (inactive) | > 100 µM (inactive) | > 100 µM (inactive) | > 100 µM (inactive) | > 100 µM (inactive) | 18.2 µM (inactive) | > 100 µM (inactive) | > 100 µM (inactive) |  |  |  |
| CS(=O)(=O)OCCCSCCSCCCOS(C)(=O)=O |  |  | > 100 µM (inactive) | > 100 µM (inactive) | > 100 µM (inactive) | > 100 µM (inactive) | > 100 µM (inactive) | > 100 µM (inactive) | > 100 µM (inactive) | > 100 µM (inactive) | > 100 µM (inactive) | > 100 µM (inactive) | > 100 µM (inactive) | > 100 µM (inactive) | > 100 µM (inactive) | > 100 µM (inactive) | > 100 µM (inactive) | > 100 µM (inactive) | > 100 µM (inactive) |  |
| COC(=O)c1c(C)cccc1C1CN=NC12Cc1cc(C)c(C)cc1C2=O (stereo not drawn) | 57.4 µM (inactive) | 73.1 µM (inactive) | 39.4 µM (inactive) | 59.6 µM (inactive) | > 100 µM (inactive) | 30.5 µM (inactive) | 24.2 µM (inactive) | 65.9 µM (inactive) | 27.9 µM (inactive) | 62.4 µM (inactive) | 66.5 µM (inactive) | > 100 µM (inactive) | 75.3 µM (inactive) | 38.1 µM (inactive) |  | 69.5 µM (inactive) | 31.6 µM (inactive) | 27.4 µM (inactive) | 52 µM (inactive) | 31 µM (inactive) |
| ON=C1CCCCC(=NO)CCCC1 | > 100 µM (inactive) | > 100 µM (inactive) | > 100 µM (inactive) |  |  | > 100 µM (inactive) | > 100 µM (inactive) | > 100 µM (inactive) | > 100 µM (inactive) |  | > 100 µM (inactive) | > 100 µM (inactive) | > 100 µM (inactive) | > 100 µM (inactive) |  | > 100 µM (inactive) | > 100 µM (inactive) | > 100 µM (inactive) | > 100 µM (inactive) | > 100 µM (inactive) |
| O=CN1CCN(C(=O)c2cc(Cl)cc(Cl)c2)C1=S | 16.9 µM (inactive) | 13.3 µM (inactive) | 17.1 µM (inactive) | 17.9 µM (inactive) | 15.2 µM (inactive) | 14.4 µM (inactive) | 7.13 µM (inactive) | 15.6 µM (inactive) | 14.2 µM (inactive) | 14.8 µM (inactive) | 16.1 µM (inactive) | 20.2 µM (inactive) | 15.6 µM (inactive) | 13.3 µM (inactive) |  | 15.8 µM (inactive) |  | 28.9 µM (inactive) | 17.1 µM (inactive) | 16.9 µM (inactive) |
| O=C1c2cccc3cc([N+](=O)[O-])cc(c23)C(=O)N1O | 28.1 µM (inactive) | 31.7 µM (inactive) | 51.1 µM (inactive) | 47.9 µM (inactive) | 32.8 µM (inactive) | 20.6 µM (inactive) | 25.9 µM (inactive) | 14.2 µM (inactive) | 34.3 µM (inactive) | 28.9 µM (inactive) | 85.3 µM (inactive) |  | 33.5 µM (inactive) |  | 24.5 µM (inactive) | 23.9 µM (inactive) | 31.7 µM (inactive) | 40.8 µM (inactive) | 34.1 µM (inactive) | 32.4 µM (inactive) |
| CC(C)c1cc(CN(C)C)c(O)c(C(C)(C)C)c1 | 16.8 µM (inactive) | 23.1 µM (inactive) | 20.7 µM (inactive) | 28.7 µM (inactive) | 22.8 µM (inactive) | 21.4 µM (inactive) | 17.4 µM (inactive) | 36.2 µM (inactive) | 36.3 µM (inactive) | 17.4 µM (inactive) | 22 µM (inactive) |  | 18.9 µM (inactive) |  |  | 54.1 µM (inactive) | 23.1 µM (inactive) | 65.3 µM (inactive) | 28.8 µM (inactive) | 18.1 µM (inactive) |
| Cc1cn(C(=O)NC23CC4CC(CC(C4)C2)C3)c(=O)[nH]c1=O | 27.9 µM (inactive) | 32.2 µM (inactive) | 24 µM (inactive) | 23.9 µM (inactive) | > 100 µM (inactive) | 64.4 µM (inactive) | 27.5 µM (inactive) | 24.7 µM (inactive) | 61.4 µM (inactive) | 88.3 µM (inactive) | 37.5 µM (inactive) | 46.2 µM (inactive) | 25.4 µM (inactive) | 31.7 µM (inactive) |  | 21.8 µM (inactive) | 69.5 µM (inactive) | 27.4 µM (inactive) | 38.7 µM (inactive) | 19.9 µM (inactive) |
| CN(C)C1(N(C)C)Oc2c(c(=O)n(C)c(=O)n2C)C(c2ccccc2Br)C1(F)F (stereo not drawn) | > 100 µM (inactive) | > 100 µM (inactive) | > 100 µM (inactive) | > 100 µM (inactive) | > 100 µM (inactive) | > 100 µM (inactive) | > 100 µM (inactive) | > 100 µM (inactive) | > 100 µM (inactive) | > 100 µM (inactive) | > 100 µM (inactive) | > 100 µM (inactive) |  | > 100 µM (inactive) |  | > 100 µM (inactive) | > 100 µM (inactive) | > 100 µM (inactive) | > 100 µM (inactive) | > 100 µM (inactive) |
| N#CC(C#N)=CNCCN1CCN(C=C(C#N)C#N)CC1 | > 100 µM (inactive) | > 100 µM (inactive) | > 100 µM (inactive) | > 100 µM (inactive) | > 100 µM (inactive) | > 100 µM (inactive) | > 100 µM (inactive) | > 100 µM (inactive) | > 100 µM (inactive) | > 100 µM (inactive) | > 100 µM (inactive) | > 100 µM (inactive) | > 100 µM (inactive) |  | > 100 µM (inactive) | > 100 µM (inactive) | > 100 µM (inactive) | > 100 µM (inactive) | > 100 µM (inactive) | > 100 µM (inactive) |
| O=C(O)CSC(NC(=O)C(C(F)(F)F)C(F)(F)F)(C(F)(F)F)C(F)(F)F | > 100 µM (inactive) | 1.38 µM (inactive) | > 100 µM (inactive) | > 100 µM (inactive) |  |  | > 100 µM (inactive) |  | > 100 µM (inactive) |  | > 100 µM (inactive) | > 100 µM (inactive) | > 100 µM (inactive) | > 100 µM (inactive) | > 100 µM (inactive) |  | > 100 µM (inactive) | > 100 µM (inactive) |  | > 100 µM (inactive) |
| Cc1cc(C)nc(NC(P(=O)(O)O)P(=O)(O)O)n1 | > 100 µM (inactive) | > 100 µM (inactive) | > 100 µM (inactive) | > 100 µM (inactive) | > 100 µM (inactive) | > 100 µM (inactive) | > 100 µM (inactive) | > 100 µM (inactive) |  | > 100 µM (inactive) | > 100 µM (inactive) | > 100 µM (inactive) |  |  |  | > 100 µM (inactive) | > 100 µM (inactive) | > 100 µM (inactive) |  |  |
| O=C1Nc2ccc(Br)cc2/C1=N/c1ccc(Cl)cc1 | 13.4 µM (inactive) | 7.1 µM (inactive) | 1.78 µM (inactive) | 15.9 µM (inactive) | 21.7 µM (inactive) | 4.55 µM (inactive) | 0.521 µM (active) | 15.5 µM (inactive) | 2.87 µM (inactive) | 15.8 µM (inactive) | 14.6 µM (inactive) | 3.58 µM (inactive) | 13 µM (inactive) |  | 6.21 µM (inactive) | 0.237 µM (active) | 13.5 µM (inactive) | 12.6 µM (inactive) |  |  |
| NC(Cc1c[nH]c2ccc([N+](=O)[O-])cc12)C(=O)O (stereo not drawn) | > 100 µM (inactive) | > 100 µM (inactive) | > 100 µM (inactive) | > 100 µM (inactive) | > 100 µM (inactive) | > 100 µM (inactive) | > 100 µM (inactive) | > 100 µM (inactive) | > 100 µM (inactive) | > 100 µM (inactive) | > 100 µM (inactive) |  | > 100 µM (inactive) | > 100 µM (inactive) | > 100 µM (inactive) | > 100 µM (inactive) | > 100 µM (inactive) | > 100 µM (inactive) | > 100 µM (inactive) | > 100 µM (inactive) |
| CCOC(=O)c1sc2nc(SC)nc3c2c1N=CN3c1ccccc1Cl | 19.4 µM (inactive) | 26.2 µM (inactive) | > 100 µM (inactive) | 55.3 µM (inactive) | 6.98 µM (inactive) | > 100 µM (inactive) | > 100 µM (inactive) | 30.9 µM (inactive) | > 100 µM (inactive) | 32.6 µM (inactive) | 24.1 µM (inactive) |  | > 100 µM (inactive) | 14.4 µM (inactive) | 26.9 µM (inactive) | 33 µM (inactive) | > 100 µM (inactive) | > 100 µM (inactive) | 17.2 µM (inactive) | 49.2 µM (inactive) |
| C=CC[C@H](C)CCC(=O)N1[C@H]2CC3CC[C@@]2(CS1(=O)=O)C3(C)C | 40.7 µM (inactive) | 80.4 µM (inactive) | 34.3 µM (inactive) | 51.1 µM (inactive) | > 100 µM (inactive) | 39.3 µM (inactive) | 30.8 µM (inactive) | > 100 µM (inactive) | 47.2 µM (inactive) |  | 41.7 µM (inactive) |  | 85.5 µM (inactive) |  | 31.5 µM (inactive) | > 100 µM (inactive) | 40.7 µM (inactive) | 44.2 µM (inactive) | 39.5 µM (inactive) | 50.2 µM (inactive) |
